≈ marks a conversion by molar mass, not a printed value.
Experiments:
Colinus virginianus = conditions: acute, oral, mortality
Daphnia magna = conditions: chronic/long-term; duration: 21 days; mortality
Tagia sp. = conditions: acute; duration: 14 days; mortality
[1] = short-term; duration: 28 days; no effects
Plant = conditions: chronic/long-term; duration: 28 days; frond number
Anas platyrhynchos = conditions: reproductive
Bibionidae = conditions: chronic/long-term; duration: 23 days; other

C#CCN1C(=O)COc2cc(F)c(N3C(=O)C4=C(CCCC4)C3=O)cc21 [Flumioxazin]
LD50 (Colinus virginianus; diet): > 1510 mg/kg-day | LD50 (Colinus virginianus): > 2250 mg/kg-day | NOEC (Daphnia magna): 0.1 mg/L | LC50 (Tagia sp.): > 982 mg/kg | NOEC [1]: 0.15 mg/L | NOEC (Plant): 6.3 µg/L | LC50 (Oncorhynchus mykiss; acute, duration: 96 hours, mortality): 2.3 µg/mL (≈ 6.49 µM) | NOEC (Oncorhynchus mykiss; chronic/long-term, duration: 21 days, growth): 0.37 mg/L | NOEL (Anas platyrhynchos): 34.3 mg/kg-day | LD50 (Rattus norvegicus; acute, mortality): > 5000 mg/kg-day | NOAEL (Rattus norvegicus; chronic, duration: 2 years, hematological): 1.8 mg/kg-day | NOAEL (Rattus norvegicus; developmental, oral, gavage, development): 10 mg/kg-day | NOAEL (Rattus norvegicus; reproduction developmental, growth): 7.5 mg/kg-day | NOAEL (Rattus norvegicus; subchronic, duration: 90 days, oral, hematological): 2.2 mg/kg-day | NOEC (Bibionidae): 0.73 mg/kg

Reference: EPA's ToxValDB 9.5 (doi:10.2903/j.efsa.2014.3736)
